Earlier results on one compound are cited in patent US9114107B2, “Compositions for inhibiting virus entry and promoting virolysis, and methods thereof” (priority 2010, dated 2015).

This data set concerns virus challenge. Particulars: cited from earlier work.

For the compound `COc1ccnc2[nH]cc(C(=O)C(=O)N3CCN(C(=O)c4ccccc4)C[C@H]3C)c12` [BMS-806, (R)-1-(4-benzoyl-2-methylpiperazin-1-yl)-2-(4-methoxy-1H-pyrrolo[2,3-b]pyridin-3-yl)ethane-1,2-dione], where the note is “biopsy after multiple applications”, the “local irritation or inflammation of macaque vagina” value is recorded as “No local irritation or inflammation was observed”. For the same compound, the animals protected (macaques challenged with virus 2-6 hours after application) is recorded as 3 of 5.
